Consider three compounds from ChEMBL document CHEMBL1127059, “Synthesis and antiviral activity of 5'-deoxypyrazofurin” (J Med Chem, 1993).

In test [1] the test system is HEL. Kind of test: Tested for inhibitory effect on DNA virus CMV (Davis) in HEL cell line. Format: functional, cell-based. The settings on record: Homo sapiens.
Test [2] deals with HEL. Format: functional, cell-based. The conditions noted are these: Homo sapiens.
For test [3], the system named is MT4. Description: cells. The settings on record: Homo sapiens.
The subject of test [4] is HeLa. Kind of test: Tested for inhibitory effect on RNA virus RSV in HeLa cell line. Format: functional, cell-based. The conditions noted are these: Homo sapiens.
For test [5], the system named is Vero. Description: Tested for inhibitory effect on RNA virus Reo-1 in Vero cell line. The settings on record: Chlorocebus sabaeus. The class given is functional, cell-based.
Test [6] relates to MDCK. Format: functional, cell-based. The settings on record: Canis lupus familiaris.
The subject of test [7] is ESM. Kind of test: Tested for inhibitory effect on DNA virus HSV-1(KOS) in ESM cell line. The class given is functional, cell-based. The settings on record: Homo sapiens.
Test [8] deals with ESM. The class given is functional, cell-based. The settings on record: Homo sapiens.
The subject of test [9] is Vero. Description: Tested for inhibitory effect on RNA virus TV in Vero cell line. Format: functional, cell-based. The conditions noted are these: Chlorocebus sabaeus.
In test [10] the test system is MDCK. Description: Tested for inhibitory effect on RNA virus Influenza A in MDCK cell line. Format: functional, cell-based. The conditions noted are these: Canis lupus familiaris.
Test [11] has as its system Vero. Format: functional, cell-based. The conditions noted are these: Chlorocebus sabaeus.
The subject of test [12] is HeLa. Kind of test: Tested for inhibitory effect on RNA virus VSV in HeLa cell line. The class given is functional, cell-based. The conditions noted are these: Homo sapiens.
Test [13] deals with Vero. Kind of test: Tested for inhibitory effect on RNA virus PV-3 in Vero cell line. The class given is functional, cell-based. The settings on record: Chlorocebus sabaeus.
For test [14], the system named is HeLa. Format: functional, cell-based. The conditions noted are these: Homo sapiens.
The test system of test [15] is ESM. Description: Tested for inhibitory effect on DNA virus HSV-2 (G) in ESM cell line. Format: functional, cell-based. The conditions noted are these: Homo sapiens.
The subject of test [16] is ESM. Kind of test: Tested for inhibitory effect on DNA virus VV in ESM cell line. Format: functional, cell-based. The settings on record: Homo sapiens.
Test [17] relates to Vero. Description: Tested for inhibitory effect on RNA virus JV in Vero cell line. The conditions noted are these: Chlorocebus sabaeus. The class given is functional, cell-based.
The subject of test [18] is Vero. Kind of test: Tested for inhibitory effect on RNA virus SFV in Vero cell line. Format: functional, cell-based. The settings on record: Chlorocebus sabaeus.
The test system of test [19] is FM3A. Format: functional, cell-based. The settings on record: Mus musculus.
Test [20] relates to ESM. Kind of test: Tested for inhibitory effect on DNA virus TK-HSV-1 (B2006) in ESM cell line. The class given is functional, cell-based. The settings on record: Homo sapiens.
In test [21] the test system is ESM. Kind of test: Tested for inhibitory effect on DNA virus TK-HSV-1(VMW 1837) in ESM cell line. The class given is functional, cell-based. The settings on record: Homo sapiens.
Test [22] relates to Vero. Kind of test: Tested for inhibitory effect on RNA virus Coxsackie B4 in Vero cell line. Format: functional, cell-based. The conditions noted are these: Chlorocebus sabaeus.
Test [23] has as its system MT4. Kind of test: Tested for inhibitory effect on RNA virus HIV-2 in MT-4 cell line. The settings on record: Homo sapiens. The class given is functional, cell-based.
For test [24], the system named is MT4. Description: Tested for inhibitory effect on RNA virus HIV-1 in MT-4 cell line. Format: functional, cell-based. The conditions noted are these: Homo sapiens.
Test [25] concerns CCRF-CEM. The class given is functional, cell-based. The conditions noted are these: Homo sapiens.
In test [26] the test system is HeLa. Description: Tested for inhibitory effect on RNA virus Polio-1 in HeLa cell line. Format: functional, cell-based. The settings on record: Homo sapiens.
Test [27] concerns MDCK. Kind of test: Tested for inhibitory effect on RNA virus Influenza B in MDCK cell line. The conditions noted are these: Canis lupus familiaris. Format: functional, cell-based.
Test [28] concerns L1210. The class given is functional, cell-based. The conditions noted are these: Mus musculus.
For test [29], the system named is Vero. Kind of test: Tested for inhibitory effect on RNA virus SV in Vero cell line. The class given is functional, cell-based. The conditions noted are these: Chlorocebus sabaeus.
For test [30], the system named is HEL. Description: Tested for inhibitory effect on DNA virus VZV (Oka) in HEL cell line. The settings on record: Homo sapiens. The class given is functional, cell-based.
The test system of test [31] is HEL. Kind of test: Tested for inhibitory effect on DNA virus CMV (AD-169) in HEL cell line. The class given is functional, cell-based. The conditions noted are these: Homo sapiens.
For test [32], the system named is HEL. Description: Tested for inhibitory effect on DNA virus TK-VZV (YS/R) in HEL cell line. The class given is functional, cell-based. The settings on record: Homo sapiens.
For test [33], the system named is HEL. Kind of test: Tested for inhibitory effect on DNA virus TK-VZV (07/1) in HEL cell line. The class given is functional, cell-based. The conditions noted are these: Homo sapiens.
For test [34], the system named is Vero. The class given is functional, cell-based. The conditions noted are these: Chlorocebus sabaeus. The source holds these as a separate data set.
For test [35], the system named is HEL. Kind of test: Tested for inhibitory effect on DNA virus VZV (YS) in HEL cell line. The settings on record: Homo sapiens. The class given is functional, cell-based.

Converted amounts (≈) assume the structure as drawn. A value given as a limit tells only on which side of the number the result lay.

A word on the IC50: it is the concentration that inhibits the measured activity by half. Regarding `Nc1nc2c(ncn2COCCO)c(=O)[nH]1` [ACYCLOVIR], the IC50 is 22 µg/mL (≈ 97.7 µM) in test [1], above 200 µg/mL in [2] and above 100 µg/mL in test [3].

On to `NC(=O)c1ncn([C@@H]2O[C@H](CO)[C@@H](O)[C@H]2O)n1` [RIBAVIRIN], for which the concentration for half-maximal inhibition (IC50) is 4 µg/mL (≈ 16.4 µM) in test [4]; 160 µg/mL (≈ 655 µM) in test [5]; above 200 µg/mL in [6]; at least 350 µg/mL in test [7]; at least 400 µg/mL in test [8]; 6.4 µg/mL (≈ 26.2 µM) in test [9]. The IC50 in [10] is 4 µg/mL (≈ 16.4 µM); in test [11] it was above 400 µg/mL; in test [12] it was 14 µg/mL (≈ 57.3 µM); in test [13] it was 20 µg/mL (≈ 81.9 µM); in test [14], at least 400 µg/mL; in [15], above 300 µg/mL. Besides, the half-maximal inhibitory concentration (IC50) was 45 µg/mL (≈ 184 µM) in test [16]; 5.2 µg/mL (≈ 21.3 µM) in test [17]; at least 235 µg/mL in test [18]; 3.9 µg/mL (≈ 16 µM) in test [19]; above 135 µg/mL in test [20]; 110 µg/mL (≈ 450 µM) in test [21]. For the same compound, the half-maximal inhibitory concentration (IC50) in [22] is 20 µg/mL (≈ 81.9 µM); in test [23], above 5 µg/mL; in test [24], above 5 µg/mL; in [25] it was 19 µg/mL (≈ 77.8 µM); in test [3], 6.5 µg/mL (≈ 26.6 µM); in [26], 70 µg/mL (≈ 287 µM). Moreover, the IC50 in test [27] is 4 µg/mL (≈ 16.4 µM); in [28], 7.1 µg/mL (≈ 29.1 µM); in [29], at least 250 µg/mL.

Regarding `C[C@H]1OC(c2n[nH]c(C(N)=O)c2O)[C@H](O)[C@@H]1O` (some centres undefined), the concentration for half-maximal inhibition (IC50) in [4] was 4 µg/mL (≈ 16.4 µM); in test [5], above 175 µg/mL; in [6], 100 µg/mL (≈ 411 µM); in [7], at least 350 µg/mL; in test [8], at least 400 µg/mL; in test [1], above 40 µg/mL. Further, the IC50 in test [9] was above 40 µg/mL; in test [10], 20 µg/mL (≈ 82.2 µM); in test [2], above 50 µg/mL; in test [30], 40 µg/mL (≈ 164 µM); in [12], 14 µg/mL (≈ 57.6 µM); in [13] it was above 200 µg/mL. For the same compound, the IC50 in test [14] is at least 170 µg/mL; in [31], above 40 µg/mL; in test [32], above 40 µg/mL; in [15], above 300 µg/mL; in [33] it was above 40 µg/mL; in test [16] it was 5.5 µg/mL (≈ 22.6 µM). Moreover, the IC50 in test [34] is above 400 µg/mL; in [17], above 40 µg/mL; in [18], above 200 µg/mL; in test [19], 39 µg/mL (≈ 160 µM); in test [20], 55 µg/mL (≈ 226 µM); in [21] it was 70 µg/mL (≈ 288 µM). For the same compound, the 50% inhibitory concentration (IC50) in [22] is 70 µg/mL (≈ 288 µM); in test [35] it was 22 µg/mL (≈ 90.5 µM); in [23], above 4 µg/mL; in test [24], above 4 µg/mL; in test [25], above 49 µg/mL; in test [3] it was 8.8 µg/mL (≈ 36.2 µM). Besides, the half-inhibitory concentration (IC50) was 55 µg/mL (≈ 226 µM) in [26], above 100 µg/mL in test [27], 37 µg/mL (≈ 152 µM) in test [28] and above 200 µg/mL in test [29].
